Where two headings read alike, the source gives them in different places.
What was measured:
interleukin-2 (IL-2) = assay: Inhibition of interleukin-2 release in Jurkat T cells, ELISA; type: cell-based, human; details: Jurkat T cells stimulated with PMA and PHA, 18 h
Description: Human E6.1 Jurkat T cells were cultured in RPMI-1640 with 10% fetal bovine serum (FBS), 2 mM I-glutamine, and 1 mM Na-pyruvate. After serum starvation for 7 h, Jurkat cells were plated in 96 well culture plates at 1.25×10^5 cells/mL in RPMI-1640 (without phenol red) with 10% FBS. Cells were treated with phorbol 12-myristate 13-acetate (PMA, 1.25 ng/mL) and phytohemaglutinin (PHA, 0.25 μg/mL) to stimulate secretion of IL-2. Testing compound or DMSO vehicle was added to appropriate wells. […] Plates were then incubated for 18 h. Cell supernatants were collected (100 μL) and assayed for interleukin-2 (IL-2) by ELISA (Human IL-2 ELISA Kit, available from BD Biosciences, San Jose, Calif.). All test conditions were assayed in triplicate and verified with repeated experiments three times.

HIF-1 [1] = assay: ODD-Luc assay (luciferase reporter) for HIF-1 inhibitory activity; type: cell-based, mouse; details: read-out: HIF-1 inhibitory activity IC50; 4T1-ODD-Luc cells, 240 μM CoCl2, compounds 24 h
Description: The HIF-1 inhibitory of compound 1, 18, and the anti-diol diastereomer 22 were assessed with the ODD-Luc assay (Li, F.; Sonveaux, P.; Rabbani, Z. N.; Liu, S.; Yan, B.; Huang, Q.; Vujaskovic, Z.; Dewhirst, M. W.; Li, C. Y. Mol. Cell 2007, 26, 63-74, which is incorporated by reference). 4T1-ODD-Luc cells, stably transfected with the oxygen-dependent-degradation (ODD) domain of HIF-1α and a firefly luciferase reporter, were seeded in the 24-well plate at a density of 10^5 cells/well. After 16-hour incubation, cells were treated with 240 μM of Cobalt (II) Chloride (Sigma-Aldrich, St. Louis, Mo., USA) and serially diluted compounds for 24 h. To measure the luciferase signals, luciferin (150 mg/mL) was added and the plates were imaged using the Xenogen IVIS imaging system and associated Living Image software (Xenogen, Alameda, Calif.). Luciferase expression/activity was detected and quantified as relative light units (RLUs). Results are means±SD, n=3.
To determine HIF-1 inhibitory activity of 31 and 33, a luciferase-reporter based assay was used as a primary screen. […] Luciferase signals were detected and quantified as relative light units (RLUs).

HIF-1α protein = assay: Western blot of nuclear extracts, HIF-1α expression in 4T1 cells; type: cell-based, mouse
HIF-1α = assay: Western blot of nuclear extracts, HIF-1α expression in MDA-MB-231 cells; type: cell-based, human
VEGF = assay: HIF-1 regulated VEGF secretion, ELISA; type: cell-based, mouse; details: 4T1 cells, hypoxia 0.5% O2, 24 h
Text: Vascular endothelial growth factor (VEGF) is a gene that is highly involved in tumor progression as a pro-angiogenic factor.

4T1 cells = details: 24 h, highest concentration examined 10 μM
Description: Like MTT (3-(4,5-d imethylthiazol-2-yl)-2,5-diphenyltetrazolium bromide, a tetrazole), MTS was reduced into a formazan product by living cells in the presence of an electron coupling reagent (phenazine methosulfate, PMS). The absorbance of the formazan was detected at 490 nm. […] Then cells were washed and incubated another three hours with cell medium containing MTS/PMS solution at 37° C. (21% O2, 5% CO2). Relative cell survival rate was determined on the O.D. values measured at 490 nm.

[2] = test system: 60 different human tumor cell lines; assay: NCI-60 DTP Human Tumor Cell Line Screen; type: cell-based
Description: The NCI-60 DTP Human Tumor Cell Line Screen utilized 60 different human tumor cell lines, representing leukemia, melanoma, and cancers of the lung, colon, brain, ovary, breast, prostate, and kidney. The screening was a two-stage process.
The human tumor cell lines of the cancer screening panel were grown in RPMI 1640 medium containing 5% fetal bovine serum and 2 mM L-glutamine. For a typical screening experiment, cells were inoculated into 96 well microtiter plates in 100 μL at plating densities ranging from 5,000 to 40,000 cells/well depending on the doubling time of individual cell lines.
After 24 h, two plates of each cell line were fixed in situ with TCA, to represent a measurement of the cell population for each cell line at the time of drug addition (Tz). […] At the time of drug addition, an aliquot of frozen concentrate was thawed and diluted to twice the desired final maximum test concentration with complete medium containing 50 μg/mL gentamicin. Additional four, 10-fold, or ½ log serial dilutions were made to provide a total of five drug concentrations plus control. Aliquots of 100 μL of these different drug dilutions were added to the appropriate microtiter wells already containing 100 μL of medium, resulting in the required final drug concentrations.
For adherent cells, the assay was terminated by the addition of cold TCA. Cells were fixed in situ by the gentle addition of 50 μL of cold 50% (w/v) TCA (final concentration, 10% TCA) and incubated for 60 minutes at 4° C. The supernatant was discarded, and the plates were washed five times with tap water and air dried. Sulforhodamine B (SRB) solution (100 μL) at 0.4% (w/v) in 1% acetic acid was added to each well, and plates were incubated for 10 minutes at room temperature. […] Bound stain was subsequently solubilized with 10 mM trizma base, and the absorbance was read on an automated plate reader at a wavelength of 515 nm. […] Using the seven absorbance measurements [time zero, (Tz), control growth, (C), and test growth in the presence of drug at the five concentration levels (Ti)], the percentage growth was calculated at each of the drug concentrations levels. Percentage growth inhibition was calculated as: [(Ti−Tz)/(C−Tz)]×100 for concentrations for which Ti>/=Tz [(Ti−Tz)/Tz]×100 for concentrations for which Ti<Tz.
Three dose response parameters were calculated for each experimental agent: GI50, TGI, and LC50. […] The drug concentration resulting in total growth inhibition (TGI) was calculated from Ti=Tz. […] Values were calculated for each of these three parameters if the level of activity was reached; however, if the effect was not reached or is exceeded, the value for that parameter was expressed as greater or less than the maximum or minimum concentration tested.

Athymic Nude mouse = assay: Non-tumored animal toxicity assay, single dose; type: in vivo; details: for Death Days / Survivors/Total at day 15: single dose
Description: All treatment was administered according to exact body weight. A single Athymic Nude mouse was given a single injection (IP) of 400 mg/kg; a second mouse received a dose of 200 mg/kg, and a third mouse received a single dose of 100 mg/kg. […] They were sacrificed if they lost more than 20% of their body weight or if there were other signs of significant toxicity. […] This process was repeated until a tolerated dose was found. This dose was then designated the maximum tolerated dose (MTD). The mice were allowed ad libitum feed and water. Injections were administered IP. Dose volumes were generally 0.1 mL/10 grams body weight but may be up to 0.2 mL/10 grams of body weight.

HIF-1 [3] = details: T47D cells, 10 μM 1,10-phenanthroline, 16 h; cited from earlier work
[4] = single dose 10 μM, leukemia, melanoma, and ovarian cancer

## COc1ccc([C@H](O)[C@@H](C)Oc2ccc(C3OC(c4ccc(O[C@H](C)[C@@H](O)c5ccc(OC)c(OC)c5)c(OC)c4)[C@H](C)[C@H]3C)cc2OC)cc1OC (stereo partly drawn) [Compound 22]
interleukin-2 (IL-2)
  release of interleukin-2: inhibited

## COc1ccc([C@@H](O)[C@@H](C)Oc2ccc(C3OC(c4ccc(O[C@H](C)[C@H](O)c5ccc(OC)c(OC)c5)c(OC)c4)[C@H](C)[C@H]3C)cc2OC)cc1OC (stereo partly drawn) [Compound 33]
HIF-1 [1]
  IC50: 47 nM

## O=c1ccc2c(OCCCCc3ccccc3)c3ccoc3cc2o1 [Psora4, reference compound]
interleukin-2 (IL-2)
  release of interleukin-2: inhibited

## COc1ccc([C@@H](O)[C@@H](C)Oc2ccc(C3OC(c4ccc(O[C@H](C)[C@H](O)c5ccc(OC)c(OC)c5)c(OC)c4)[C@H](C)[C@H]3C)cc2OC)cc1OC (stereo partly drawn) [manassantin A]
HIF-1α protein; 4T1 cells, 240 μM CoCl2 24 h, manassantin A 100 nM
  HIF-1α expression induced by CoCl2: inhibited
HIF-1α protein; 4T1 cells, hypoxia 0.5% O2, 24 h
  concentration significantly inhibiting hypoxia-induced nuclear expression of HIF-1α protein: higher than 10 nM
HIF-1α protein; at the concentration 100 nM
  expression of HIF-1: completely inhibited
HIF-1α
  HIF-1α nuclear expression induced by CoCl2: inhibited
VEGF
  concentration significantly inhibiting VEGF induced by hypoxia: higher than 10 nM
4T1 cells
  cell survival rate: ~70%
[2]; single dose 10 μM, 48 h, SRB
  tumor cell growth, trial 1: reduced the growth of all tumors tested
[2]; [4]
  lethality, trial 1: more than 50%
  lethality, trial 2: more than 50%
[2]; trial 2, 48 h, SRB
  tumor cell growth, trial 2: reduced the growth of all tumors tested
Athymic Nude mouse; Group 4, 100.00 mg/kg/dose IP
  Death Days: 0
  Survivors/Total at day 15: 0/1
Athymic Nude mouse; Group 11, 12.50 mg/kg/dose IP
  Death Days: 0
  Survivors/Total at day 15: 0/1
Athymic Nude mouse; Group 12, 1.56 mg/kg/dose IP
  Death Days: none
  Survivors/Total at day 15: 1/1
Athymic Nude mouse; Group 13, 3.13 mg/kg/dose IP
  Death Days: none
  Survivors/Total at day 15: 1/1
Athymic Nude mouse; Group 14, 6.25 mg/kg/dose IP
  Death Days: none
  Survivors/Total at day 15: 1/1
Athymic Nude mouse; levels of 6.25, 3.13, and 1.56 mg/kg/dose IP
  toxicity (in words): non-toxic
Athymic Nude mouse; levels of 12.50 and 100.00 mg/kg/dose IP
  toxicity (in words): resulted in death
Athymic Nude mouse; single IP injection of 400, 200 and 100 mg/kg, one mouse each
  toxicity outcome at first dose levels: all 3 mice had to be sacrificed
interleukin-2 (IL-2)
  release of interleukin-2: inhibited
Group 4, 200.0 mg/mL in 100% DMSO
  Solubility: soluble, no
Group 11, 25.0 mg/mL in 100% DMSO
  Solubility: soluble, no
Group 12, 3.125 mg/mL in 100% DMSO
  Solubility: soluble, no
Group 13, 3.125 mg/mL in 100% DMSO
  Solubility: soluble, no
Group 14, 3.125 mg/mL in 100% DMSO
  Solubility: soluble, no
HIF-1 [3]
  effect on iron chelator-induced HIF-1 activation: no significant effect
